Type in all cases: in vivo, mouse
Experiment [1] deals with stratum pyramidale CA1 in hippocampus. As to the kind of experiment: Morphological change in hippocampus (Nissl staining, width of stratum pyramidale CA1) after CIS and glutamine supplementation. Conditions: STR+Gln vs STR; glutamine 150 mg/kg of feed. As for the experimental part:
Control (CTL) is a group which received normal diet (common diet with nutritional balance) without any stress, CTL+Gln group is a normal diet group supplemented with glutamine (150 mg/kg of feed) and without any stress, STR is a normal diet group under stress, and STR+Gln group is a normal diet group supplemented with glutamine (150 mg/kg of feed) under stress. The stress group (STR) was individually brought by force to a restrainer for 2 hours every day (i.e., between 2 PM and 4 PM) so that the animals are applied with chronic immobilization stress for 15 days. Any morphological change in hippocampus caused by the application of chronic immobilization stress and glutamine supplementation was determined by brain tissue staining of hippocampal region. Specifically, a section (i.e., brain tissue specimen) obtained after mounting for 5 minutes in 0.1% cresyl violet which has been dissolved in 0.2% acetic acid followed by air-drying was stained. Stained section was washed, subsequently immersed for 30 seconds in 80% (v/v) ethanol, again immersed for 30 seconds in 90% (v/v) ethanol, and again immersed twice for 30 seconds in 95% (v/v) ethanol. It was again immersed twice for 30 seconds in 100% (v/v) ethanol for dehydration. […]

A further experiment has as its system PSD-95 and synaptophysin. Briefly: Synaptic puncta by co-localization of PSD-95 and synaptophysin after CIS and glutamine supplementation. As to conditions: infralimbic cortex and hippocampal CA1 region (FIGS. 5E and 6F). As to the method: Control (CTL) is a group which received normal diet (common diet with nutritional balance) without any stress, CTL+Gln group is a normal diet group supplemented with glutamine (150 mg/kg of feed) and without any stress, STR is a normal diet group under stress, and STR+Gln group is a normal diet group supplemented with glutamine (150 mg/kg of feed) under stress. The stress group (STR) was individually brought by force to a restrainer for 2 hours every day (i.e., between 2 PM and 4 PM) so that the animals are applied with chronic immobilization stress for 15 days. Twenty-four hours after applying the last stress, the mouse was anesthetized with avertin, and perfused with PBS (pH 7.4) and 4% formaldehyde. After that, the brain was removed, fixed, and cut to a thickness with 40 μm. It was then incubated overnight after the addition of each antibody, nNOS (sc-5302, 200 μg/ml, Santa Cruz, Dallas, TX, USA, 1:50), iNOS (sc-7271, 200 μg/ml, Santa Cruz, 1:20), p47phox (sc-17845, 200 μg/ml, Santa Cruz, 1:20), p67phox (15551-1-AP, 43 μg/150 μl, Proteintech, Rosemont, IL, USA, 1:100), PSD-95 (postsynaptic density-95) (ab12093, 1 mg/ml, Abcam, Cambridge, UK, 1: 200), and synaptophysin (ab14692, 0.65 mg/ml, Abcam, 1: 200). […]

In experiment [2] the test system is C57BL/6 male mice applied with chronic immobilization stress. Briefly: Behavior analysis by ORT and OLT after CIS and glutamine supplementation. As to conditions: STR+Gln vs STR; glutamine 150 mg/kg of feed, after 15 days stress. As to the method: Control (CTL) is a group which received normal diet (common diet with nutritional balance) without any stress, CTL+Gln group is a normal diet group supplemented with glutamine (150 mg/kg of feed) and without any stress, STR is a normal diet group under stress, and STR+Gln group is a normal diet group supplemented with glutamine (150 mg/kg of feed) under stress. The stress group (STR) was individually brought by force to a restrainer for 2 hours every day (i.e., between 2 PM and 4 PM) so that the animals are applied with chronic immobilization stress for 15 days. By using the cohorts of Example 1, behavior analysis was carried out. After applying the stress for 15 days, behavior analysis was immediately carried out. ORT includes three separate sessions, i.e., habituation, familiarization, and test. During 2 days of the habituation, the animals were allowed to stay in an empty open space for 10 minutes a day. After the habituation, they were subjected to familiarization by placing two identical objects in the open space. Mice of each test group were allowed to explore freely the object for 10 minutes. […] Discrimination index (DI) in ORT was then calculated according to the following formula (1). […] Discrimination index (DI) in OLT was then calculated according to the following formula (2). […]

The next experiment deals with amyloid beta 42 (Aβ42). As to the kind of experiment: Aβ42 in neuronally derived blood exosome (NDE) by ELISA after glutamine diet. Conditions: female 3×TG-AD, 3×TG+Gln vs 3×TG, after test with 6-months old animals. As to the method: As an animal model for cognitive ability evaluation, a 7-weeks old 3×TG-AD female mouse (8 mice. model of Alzheimer's disease) and a C57BL/6 female mouse (10 mice, control) were selected. The animals of each type were divided into 2 groups, and each group was provided with regular animal feed (i.e., normal diet, ND) or glutamine feed (Gln). The glutamine diet group was allowed to consume the feed containing 150 mg glutamine/kg diet, from 2-months old stage to the end of test (i.e., 6 to 7-months old stage). Health state of the animal was checked by measuring, once a week, the bodyweight of the animal and food intake (FIG. 7A). After the cognitive ability test with 6-months old animals, the mouse was sacrificed using carbon dioxide and a change in neuronally derived blood exosome (NDE) protein was determined. Total exosomes were separated from serum, and, after a reaction for 1 hour with anti-CD171 antibody, they were reacted for 1 hour with streptavidin-fused magnetic beads. After that, elution was carried out using 0.05 M glycine-HCl (pH 3.0), and then addition of 1 M Tris-HCl (pH 8.0) was made. Analysis was then made by using amyloid beta 42 (Aβ42) mouse ELISA kit.

Molecules are shown by their SMILES. Entries after “also recorded” stand apart in the source; their conditions may differ.

`NC(=O)CC[C@H](N)C(=O)O` [glutamine]: the “width of CA1-SP (stratum pyramidale CA1)” value in experiment [1] is “restored”. Moreover, the “synaptic puncta (co-localization of PSD-95 and synaptophysin)” value in the experiment with PSD-95 and synaptophysin is “significantly increased”. Moreover, in experiment [2], the “discrimination index (DI) in OLT” value is “higher DI” and the “discrimination index (DI) in ORT” value is “higher DI”. Further, in the experiment on amyloid beta 42 (Aβ42), the “Aβ42 in NDE (neuronally derived blood exosome)” value is “statistically significant decrease; also recorded: suppressed”.
